# Where two headings read alike, the source gives them in different places.
# Assays:
# Assay type in all cases: in vivo
# [1] = tested on: Amaranthus spp, (pigweed); assay: Field trial visual weed control, AMASS; details: 16DAA
# Procedure: (§1) One field trial was conducted in field-grown cotton using standard herbicide small plot research methodology (Table 2). Plots were 2 rows wide by 20 ft long with 4 replicates per treatment. The cotton crop was grown using normal cultural practices for fertilization, seeding, watering, flooding and maintenance to ensure good growth of the crop and the weeds.
# (§2) All treatments in the field trials were applied using a CO2 backpack sprayer calibrated to apply 187 L/ha spray volume. Commercially available products of penoxsulam and mepiquat chloride were mixed in water at appropriate formulated product rates to achieve the desired rates based on a unit area of application (hectare) to achieve the desired rates as shown. Treatments were sprayed as a postemergence foliar application to cotton at 10-leaf stage application timing. Treatments were rated at 16 and 41 days after the application as compared to the untreated control plants. Visual crop injury ratings were scored on a scale of 0 to 100 where 0 corresponds to no injury and 100 corresponds to complete control. Visual weed control was scored on a scale of 0 to 100 percent where 0 corresponds to no weed control and 100 corresponds to complete control.
# [2] = tested on: Solanum nigrum (black nightshade); assay: Field trial visual weed control, SOLNI; details: 16DAA
# Procedure: as §1, §2
# cotton [3] = assay: Postemergence plant growth regulator activity in the field (cotton); details: for Injury (Cotton) / Reduction (height reduction, Cotton) / Maturity (% open bolls, Cotton): 10-leaf stage
# Procedure: Evaluation of Postemergence Plant Growth Regulator Activity in the Field
# as §1, §2
# cotton [4] = details: for Number (Bolls): 52DAAA
# Procedure: Evaluation of Postemergence Plant Growth Regulator Activity in the Greenhouse Treatments consisted of the compounds as listed in Table 1. Formulated amounts of penoxsulam (Dow AgroSciences Granite® SC herbicide) were placed in 3-liter bottles and dissolved in a volume of 500 mL of a water solution containing Agri-dex crop oil concentrate in a 1.25% v/v ratio. Compound requirements are based upon a 0.3 L application volume at a rate of 187 liters per hectare (L/ha). Spray solutions of the mixtures were prepared by adding the stock solutions to the appropriate amount of dilution solution to form a 500 mL spray solution with active ingredients in single and two way combinations. Formulated compounds were applied to the plant material via backpack sprayer with XR 11001 nozzles calibrated to deliver 187 L/ha at a spray height of 18 inches ([…] centimeters (cm)) above average plant canopy. The treated and control plants were placed in a greenhouse in a randomized block design on greenhouse carts and watered by […] irrigation to prevent wash-off of the test compounds from leafy tissues. Treatments were rated at 14 to 52 days after application as compared to the untreated control plants. Visual injury ratings were scored on a scale of 0 to 10 where 0 corresponds to no injury and 10 corresponds to complete control.
structure (smiles),measurement,setting,value
C[N+]1(C)CCCCC1 [Mepiquat-chloride],Control (AMASS),[1]; 74 gr ai/ha,95 % Visual
same,Control (SOLNI),[2]; 74 gr ai/ha,91.3 % Visual
same,Injury (Cotton),"cotton [3]; 74 gr ai/ha, 16DAA",0 % Visual
same,"Reduction (height reduction, Cotton)","cotton [3]; 74 gr ai/ha, 16DAA",11.3 % Visual
same,Injury (Cotton),"cotton [3]; 74 gr ai/ha, 41DAA",5 % Visual
same,"Maturity (% open bolls, Cotton)","cotton [3]; 74 gr ai/ha, 41DAA",53.8 % Visual
same,"Reduction (height reduction, Cotton)","cotton [3]; 74 gr ai/ha, 41DAA",13.8 % Visual
"COc1cnc(OC)n2nc(NS(=O)(=O)c3c(OCC(F)F)cccc3C(F)(F)F)nc12 [Penoxsulam, 2-(2,2-difluoroethoxy)-N-(5,8-dimethoxy[1.2.4]triazolo[1,5-c]pyrimidine-2-yl)-6-(trifluoromethyl)benzenesulfonamide]",Control (AMASS),[1]; 35 gr ai/ha,95 % Visual
same,Control (AMASS),[1]; 70 gr ai/ha,98.8 % Visual
same,Control (SOLNI),[2]; 35 gr ai/ha,88.8 % Visual
same,Control (SOLNI),[2]; 70 gr ai/ha,93.8 % Visual
same,Height,"cotton [4]; 8.8 gr ai/ha, application A (4 leaf cotton), 14DAAA",17.6 Cm
same,Height,"cotton [4]; 8.8 gr ai/ha, application A (4 leaf cotton), 27DAAA",25.5 Cm
same,Height,"cotton [4]; 8.8 gr ai/ha, application A (4 leaf cotton), 49DAAA",36.6 Cm
same,Number (Bolls),"cotton [4]; 8.8 gr ai/ha, application A (4 leaf cotton)",3.2 Bolls
same,Height,"cotton [4]; 8.8 gr ai/ha, application B (10 leaf cotton, 21 days after A timing), 14DAAA",28.8 Cm
same,Height,"cotton [4]; 8.8 gr ai/ha, application B (10 leaf cotton, 21 days after A timing), 27DAAA",32.7 Cm
same,Height,"cotton [4]; 8.8 gr ai/ha, application B (10 leaf cotton, 21 days after A timing), 49DAAA",44 Cm
same,Number (Bolls),"cotton [4]; 8.8 gr ai/ha, application B (10 leaf cotton, 21 days after A timing)",9 Bolls
same,Height,"cotton [4]; 17.5 gr ai/ha, application A (4 leaf cotton), 14DAAA",15.7 Cm
same,Height,"cotton [4]; 17.5 gr ai/ha, application A (4 leaf cotton), 27DAAA",21.8 Cm
same,Height,"cotton [4]; 17.5 gr ai/ha, application A (4 leaf cotton), 49DAAA",33.5 Cm
same,Number (Bolls),"cotton [4]; 17.5 gr ai/ha, application A (4 leaf cotton)",2.2 Bolls
same,Height,"cotton [4]; 17.5 gr ai/ha, application B (10 leaf cotton, 21 days after A timing), 14DAAA",27.2 Cm
same,Height,"cotton [4]; 17.5 gr ai/ha, application B (10 leaf cotton, 21 days after A timing), 27DAAA",30.4 Cm
same,Height,"cotton [4]; 17.5 gr ai/ha, application B (10 leaf cotton, 21 days after A timing), 49DAAA",39.2 Cm
same,Number (Bolls),"cotton [4]; 17.5 gr ai/ha, application B (10 leaf cotton, 21 days after A timing)",8.4 Bolls
same,Height,"cotton [4]; 35 gr ai/ha, application A (4 leaf cotton), 14DAAA",15.5 Cm
same,Height,"cotton [4]; 35 gr ai/ha, application A (4 leaf cotton), 27DAAA",20.5 Cm
same,Height,"cotton [4]; 35 gr ai/ha, application A (4 leaf cotton), 49DAAA",30.1 Cm
same,Number (Bolls),"cotton [4]; 35 gr ai/ha, application A (4 leaf cotton)",2.8 Bolls
same,plant growth regulator effect on cotton (summary of Table 1),cotton [4]; greenhouse,growth regulating activity of penoxsulam on cotton growth and increase in cotton boll production
same,"Reduction (height reduction, Cotton)","cotton [3]; 35 gr ai/ha, 16DAA",11.3 % Visual
same,"Maturity (% open bolls, Cotton)","cotton [3]; 35 gr ai/ha, 41DAA",62.5 % Visual
same,"Reduction (height reduction, Cotton)","cotton [3]; 35 gr ai/ha, 41DAA",10 % Visual
same,"Reduction (height reduction, Cotton)","cotton [3]; 70 gr ai/ha, 16DAA",9.3 % Visual
same,"Maturity (% open bolls, Cotton)","cotton [3]; 70 gr ai/ha, 41DAA",48.8 % Visual
same,"Reduction (height reduction, Cotton)","cotton [3]; 70 gr ai/ha, 41DAA",5 % Visual
same,plant growth regulator effect on cotton (summary of Table 2),cotton [3]; field,"growth inhibiting activity of penoxsulam, similar to the commercial product mepiquat-chloride, while increasing the maturity of cotton bolls"
